Assay results as given in patent publication US11267826B2, “Penicillin-binding protein inhibitors” (priority 2017, dated 2022).

Key:
S. aureus ATCC 29213 = assay: Broth microdilution MIC assay, S. aureus; format: cell-based; settings: Staphylococcus aureus, ATCC29213; broth microdilution, 16-20 hours at 37° C.; read-out: S. aureus 29213 MIC
In short: (§1)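 Colonies from Mueller Hinton II agar grown 3-5 h at 37° C in cation-adjusted MH broth; OD600-adjusted inoculum, 5×10^5 CFU/mL final, added to 2-fold compound series. 16-20 h, 37° C. Visual MIC, no-growth endpoint.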

E. coli PBP3 = target: T1, E. coli PBP3 (Escherichia coli, UniProt P0AD68); assay: Bocillin FL competition binding assay, PBP3; set-up: species or system Escherichia coli K12; settings: 15 min pre-incubation
T1 construct: 100 μg's of total membrane protein extracts containing PBPs; endogenous in cells; host or cells: Escherichia coli K12, membrane protein fraction
Experimental: (§2) To determine the ability of test compounds to bind Penicillin Binding Proteins (PBPs), a competition binding assay using Bocillin FL (fluorescent derivative of penicillin V) was adapted from the classical method used to assess PBP potency of beta-lactams.
(§3) Penicillin binding proteins were isolated from Escherichia coli K12 by growth of Escherichia coli K12 from a single colony in 4 L of Luria-Bertani (LB) broth at 35° C. and 250 rpm to an OD600 nm of 0.5. The cells were harvested by centrifugation at 7,000×g for 10 min. at 4° C. Cells were resuspended and washed in 50 mM potassium phosphate pH 7.5. The cells were re-suspended in sonication buffer [50 mM Tris-HCl pH 7.5, 1 mM MgCl2, 1 mM beta-mercaptoethanol, and 5 μg/mL DNAse I] and sonicated by 4 passes of 30 seconds at 45 W on ice. The sample was clarified by centrifugation at 3,000×g to remove cell debris and unbroken cells and supernatant containing the membrane proteins was retained. The membrane proteins including the PBPs were further purified from soluble constituents by an ultracentrifugation step at 100,000×g for 30 min. at 4° C. The membrane proteins are washed twice with 10 mM sodium phosphate pH 7, resuspended in a volume of 5 mL, quantitated by BCA assay, adjusted to […] and frozen at −80° C. until use.
(§4) The adapted Bocillin FL competition binding method described herein incorporates a 15 min. pre-incubation of test compound with isolated PBPs to attempt to balance the difference in mechanism of inhibition between beta-lactams (largely irreversible covalent bond to active site Serine) and the boron-containing PBP inhibitor test compounds (reversible covalent bond to active site Serine). Briefly, 50 μL reactions consisted of 100 μg's of total membrane protein extracts containing PBPs incubated with a dilution series of test compound ranging from 0.005 μg/mL to 2,480 μg/mL in 10 mM sodium phosphate pH7 containing 350 mM NaCl. Thirty minute reactions at 35° C. were initiated by addition of […] Bocillin FL, quenched by addition of SDS-PAGE loading buffer containing sodium dodecyl sulfate (SDS) and heated for 15 minutes at 95° C. to denature proteins in preparation for SDS-polyacrylamide gel electrophoresis. The Bocillin FL labeled PBPs are then separated by SDS-PAGE in Novex NuPage 10% Bis-Tris pre-cast gels (Invitrogen). The SDS-PAGE gel, post-electrophoresis, is then washed in water to remove excess SDS for 10 minutes at room temperature and placed on the scanning bed of a GE Healthcare/Amersham Biosciences Storm 860 fluorescence scanner. The excitation wavelength is in the blue spectrum at 450 nm and the emission at 520 nm is captured by the instrument. Effective PBP inhibitors are detected by a reduction in Bocillin FL labeling of the particular PBP over the dose range of test compound in a dose-responsive manner. High molecular weight PBP 1a/1b are not resolved by these gels, thus we report HMW PBP binding results in μg/mL for PBPs 1a/1b combined as well as for PBP2 and PBP3.
(§5) Representative results are shown in Table 2, where A represents a potency of >1000 μg/mL, B represents a potency between 64 and 1000 μg/mL inclusive, and C represents a potency of <64 μg/mL. NT=Not Tested.

E. coli K12 PBP1a/b = assay: Bocillin FL competition binding assay, PBP1a/1b combined; set-up: species or system Escherichia coli K12; settings: 15 min pre-incubation, PBP 1a/1b combined
Experimental: as §2, §3, §4, §5

[1] = system: hyper-permeable E. coli 901C; assay: Broth microdilution MIC assay, hyper-permeable E. coli; format: cell-based; settings: Escherichia coli, read-out: E. coli 901C MIC
In short: as §1

E. coli PBP2 = target: T2, E. coli PBP2 (Escherichia coli, UniProt P0AD65); assay: Bocillin FL competition binding assay, PBP2; set-up: species or system Escherichia coli K12; settings: 15 min pre-incubation
T2 construct: 100 μg's of total membrane protein extracts containing PBPs; endogenous in cells; host or cells: Escherichia coli K12, membrane protein fraction
Experimental: as §2, §3, §4, §5

T1 sequence (P0AD68 1-577): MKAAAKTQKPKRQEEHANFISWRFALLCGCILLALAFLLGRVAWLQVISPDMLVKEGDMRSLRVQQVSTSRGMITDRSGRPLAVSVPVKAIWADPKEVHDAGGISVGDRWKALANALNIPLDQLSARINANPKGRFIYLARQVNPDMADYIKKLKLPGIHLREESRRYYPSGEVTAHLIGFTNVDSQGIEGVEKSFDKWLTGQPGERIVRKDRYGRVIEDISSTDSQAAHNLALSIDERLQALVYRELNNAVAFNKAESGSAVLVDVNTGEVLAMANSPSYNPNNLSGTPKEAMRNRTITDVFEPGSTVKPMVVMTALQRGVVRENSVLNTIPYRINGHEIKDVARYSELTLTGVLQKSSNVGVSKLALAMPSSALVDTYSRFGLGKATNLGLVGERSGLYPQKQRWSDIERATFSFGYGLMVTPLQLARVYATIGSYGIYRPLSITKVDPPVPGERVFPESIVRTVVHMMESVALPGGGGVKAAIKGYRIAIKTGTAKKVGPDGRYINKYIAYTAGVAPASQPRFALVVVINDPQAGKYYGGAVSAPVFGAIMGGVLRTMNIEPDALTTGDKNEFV
T2 sequence (P0AD65 whole entry): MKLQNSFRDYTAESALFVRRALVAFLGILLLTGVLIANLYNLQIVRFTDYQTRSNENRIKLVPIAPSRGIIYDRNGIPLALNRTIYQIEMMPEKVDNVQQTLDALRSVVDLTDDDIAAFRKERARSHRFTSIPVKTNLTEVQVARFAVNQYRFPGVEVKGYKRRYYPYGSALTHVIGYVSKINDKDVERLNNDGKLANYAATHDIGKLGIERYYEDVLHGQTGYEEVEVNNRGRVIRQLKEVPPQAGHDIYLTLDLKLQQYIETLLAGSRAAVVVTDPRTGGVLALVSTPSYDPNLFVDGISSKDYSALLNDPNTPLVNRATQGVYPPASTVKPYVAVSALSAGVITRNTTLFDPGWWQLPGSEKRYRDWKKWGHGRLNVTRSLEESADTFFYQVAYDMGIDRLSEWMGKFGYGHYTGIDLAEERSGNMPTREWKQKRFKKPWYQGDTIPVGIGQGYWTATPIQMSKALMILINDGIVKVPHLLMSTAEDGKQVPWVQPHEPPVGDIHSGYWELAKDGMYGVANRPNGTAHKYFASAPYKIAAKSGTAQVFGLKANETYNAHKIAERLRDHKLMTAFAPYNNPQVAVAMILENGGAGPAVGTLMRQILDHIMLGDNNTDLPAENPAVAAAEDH

SMILES | MIC (S. aureus ATCC 29213) | E. coli PBP3 Potency (E. coli PBP3) | E. coli K12 PBP1a/b Potency (E. coli K12 PBP1a/b) | MIC [1] | E. coli PBP2 Potency (E. coli PBP2)
COc1cc2c(c(C(=O)O)c1)OB(O)[C@@H](NC(=O)/C(=N\O)c1csc(N)n1)C2 [Example 42, (R,Z)-3-(2-(2-aminothiazol-4-yl)-2-(hydroxyimino)acetamido)-2-hydroxy-6-methoxy-3,4-dihydro-2H-benzo[e][1,2]oxaborinine-8-carboxylic Acid] | < 64 µg/mL | C (C represents a potency of <64 μg/mL) | C (C represents a potency of <64 μg/mL) | < 64 µg/mL | C (C represents a potency of <64 μg/mL)
NCCCC[C@H](NC(=O)CO/N=C(\C(=O)N[C@H]1Cc2cccc(C(=O)O)c2OB1O)c1csc(N)n1)C(=O)O [Example 65, (R)-3-((Z)-2-((2-(((S)-5-amino-1-carboxypentyl)amino)-2-oxoethoxy)imino)-2-(2-aminothiazol-4-yl)acetamido)-2-hydroxy-3,4-dihydro-2H-benzo[e][1,2]oxaborinine-8-carboxylic] | > 128 µg/mL | C (C represents a potency of <64 μg/mL) | C (C represents a potency of <64 μg/mL) | < 64 µg/mL | B (B represents a potency between 64 and 1000 μg/mL inclusive)
NCCCCCNC(=O)CO/N=C(\C(=O)N[C@H]1Cc2cccc(C(=O)O)c2OB1O)c1csc(N)n1 [Example 67, (R,Z)-3-(2-((2-((5-aminopentyl)amino)-2-oxoethoxy)imino)-2-(2-aminothiazol-4-yl)acetamido)-2-hydroxy-3,4-dihydro-2H-benzo[e][1,2]oxaborinine-8-carboxylic Acid] | > 128 µg/mL | C (C represents a potency of <64 μg/mL) | B (B represents a potency between 64 and 1000 μg/mL inclusive) | < 64 µg/mL | B (B represents a potency between 64 and 1000 μg/mL inclusive)
Nc1nc(/C(=N/OCC(=O)NCCCCCNC(=O)CBr)C(=O)N[C@H]2Cc3cccc(C(=O)O)c3OB2O)cs1 [Example 78, (R,Z)-3-(2-(2-aminothiazol-4-yl)-15-bromo-6,14-dioxo-4-oxa-3,7,13-triazapentadec-2-enamido)-2-hydroxy-3,4-dihydro-2H-benzo[e][1,2]oxaborinine-8-carboxylic Acid] | – | B (B represents a potency between 64 and 1000 μg/mL inclusive) | B (B represents a potency between 64 and 1000 μg/mL inclusive) | > 128 µg/mL | B (B represents a potency between 64 and 1000 μg/mL inclusive)
N#CC1CCC(NC(=O)CO/N=C(\C(=O)N[C@H]2Cc3cccc(C(=O)O)c3OB2O)c2csc(N)n2)CC1 (stereo partly drawn) [Example 63, (R)-3-((Z)-2-(2-aminothiazol-4-yl)-2-((2-(((1s,4S)-4-cyanocyclohexyl)amino)-2-oxoethoxy)imino)acetamido)-2-hydroxy-3,4-dihydro-2H-benzo[e][1,2]oxaborinine-8-carboxylic Acid] | – | C (C represents a potency of <64 μg/mL) | B (B represents a potency between 64 and 1000 μg/mL inclusive) | – | B (B represents a potency between 64 and 1000 μg/mL inclusive)
CCCO/N=C(\C(=O)N[C@H]1Cc2cccc(C(=O)O)c2OB1O)c1csc(N)n1 [Example 98, (R,Z)-3-(2-(2-aminothiazol-4-yl)-2-(propoxyimino)acetamido)-2-hydroxy-3,4-dihydro-2H-benzo[e][1,2]oxaborinine-8-carboxylic Acid] | < 64 µg/mL | – | – | < 64 µg/mL | –
CNc1nc(/C(=N/OCc2ccccc2)C(=O)N(C)[C@H]2Cc3cccc(C(=O)O)c3OB2O)cs1 [Example 23, (R,Z)-3-(2-((benzyloxy)imino)-N-methyl-2-(2-(methylamino)thiazol-4-yl)acetamido)-2-hydroxy-3,4-dihydro-2H-benzo[e][1,2]oxaborinine-8-carboxylic Acid] | > 128 µg/mL | – | – | > 128 µg/mL | –
Nc1nc(/C(=N/OCC(F)(F)F)C(=O)N[C@H]2Cc3cccc(C(=O)O)c3OB2O)cs1 [Example 117, (R,Z)-3-(2-(2-aminothiazol-4-yl)-2-((2,2,2-trifluoroethoxy)imino)acetamido)-2-hydroxy-3,4-dihydro-2H-benzo[e][1,2]oxaborinine-8-carboxylic Acid] | 64 to 128 µg/mL | – | – | < 64 µg/mL | –
O=C(N[C@H]1Cc2cccc(C(=O)O)c2OB1O)/C(=N\O)c1ccccc1 [Example 83, (R,Z)-2-hydroxy-3-(2-(hydroxyimino)-2-phenylacetamido)-3,4-dihydro-2H-benzo[e][1,2]oxaborinine-8-carboxylic Acid] | < 64 µg/mL | – | – | > 128 µg/mL | –
NCCN(CCN)c1nc(/C(=N/O)C(=O)N[C@H]2Cc3cccc(C(=O)O)c3OB2O)cs1 [Example 94, (R,Z)-3-(2-(2-(bis(2-aminoethyl)amino)thiazol-4-yl)-2-(hydroxyimino)acetamido)-2-hydroxy-3,4-dihydro-2H-benzo[e][1,2]oxaborinine-8-carboxylic Acid] | < 64 µg/mL | – | – | > 128 µg/mL | –
Nc1nc(/C(=N/O)C(=O)N[C@H]2Cc3ccc(CN4CCCC4)c(C(=O)O)c3OB2O)cs1 [Example 25, (R,Z)-3-(2-(2-aminothiazol-4-yl)-2-(hydroxyimino)acetamido)-2-hydroxy-7-(pyrrolidin-1-ylmethyl)-3,4-dihydro-2H-benzo[e][1,2]oxaborinine-8-carboxylic Acid] | < 64 µg/mL | – | – | > 128 µg/mL | –
Nc1nc(C(=CCCO)C(=O)N[C@H]2Cc3cccc(C(=O)O)c3OB2O)cs1 [Example 85, (R)-3-(2-(2-aminothiazol-4-yl)-5-hydroxypent-2-enamido)-2-hydroxy-3,4-dihydro-2H-benzo[e][1,2]oxaborinine-8-carboxylic Acid] | 64 to 128 µg/mL | – | – | 64 to 128 µg/mL | –
COc1cc2c(c(C(=O)O)c1)OB(O)[C@@H](NC(=O)/C(=N\OC(C)(C)C(N)=O)c1csc(N)n1)C2 [Example 81, (R,Z)-3-(2-(((1-amino-2-methyl-1-oxopropan-2-yl)oxy)imino)-2-(2-aminothiazol-4-yl)acetamido)-2-hydroxy-6-methoxy-3,4-dihydro-2H-benzo[e][1,2]oxaborinine-8-carboxylic Acid] | > 128 µg/mL | – | – | < 64 µg/mL | –
Nc1nc(/C(=N/O)C(=O)N[C@H]2Cc3cc(CN4CCCC4)cc(C(=O)O)c3OB2O)cs1 [Example 33, (R,Z)-3-(2-(2-aminothiazol-4-yl)-2-(hydroxyimino)acetamido)-2-hydroxy-6-(pyrrolidin-1-ylmethyl)-3,4-dihydro-2H-benzo[e][1,2]oxaborinine-8-carboxylic Acid] | < 64 µg/mL | – | – | > 128 µg/mL | –
O=C(N[C@H]1Cc2cccc(C(=O)O)c2OB1O)/C(Cn1nccn1)=N\O [Example 127, (R,Z)-2-hydroxy-3-(2-(hydroxyimino)-3-(2H-1,2,3-triazol-2-yl)propanamido)-3,4-dihydro-2H-benzo[e][1,2]oxaborinine-8-carboxylic Acid] | > 128 µg/mL | – | – | > 128 µg/mL | –
